# Ends that are not written are not given here.
# Tested on: infliximab
# Assay: Confirmatory phage ELISA, binding of phage-displayed peptides to infliximab
# Conditions: FIG. 3, N value of 2
# Experimental: 96-well black ELISA plates were coated with streptavidin (Columns 1 through 4), mAb competitor (Columns 5 and 6), hIgG (Columns 7 and 8), human serum albumin (Columns 9 and 10) and collagen (Columns 11 and 12), at a concentration of 5 micrograms/mL in PBS. Plates were incubated overnight at 4° C. Plates were washed 3 times with TBST using a plate washer. To the streptavidin-coated wells in columns 3 and 4, 100 microliters of a 5 micrograms/mL solution of biotinylated-infliximab was introduced and allowed to sit at room temperature for 30 minutes. To all other wells, 100 microliters of PBS was introduced. The plates were again washed 3 times with TBST using the plate washer. The wells were then blocked with 250 microliters of a 3% dehydrated milk suspension in TBST and allowed to sit at room temperature for a minimum of 1 hour. Using phage concentrations determined by the phage titrations, dilutions of the phage stock solutions were performed in a separate 96-well plate to result in phage concentrations of 10^10, 10^9, 10^8, 10^7, 10^6 and 10^5 phage/well. After blocking, the ELISA plate was washed 3 times with TBST and 100 microliters of the phage dilutions were introduced to the respective ELISA plates and allowed to sit at room temperature for a minimum of 1 hour. The ELISA plate was again washed 3 times with TBST using the plate washer and 100 microliters of an horseradish peroxidase (HRP)-conjugated Anti-M13 Phage Mab (1:5000 dilution in PBS) was introduced to each well. The plates were allowed to sit at room temperature for 1 hour after which time the plates were washed 3 times with TBST. Next, a peroxidase-based (POD) HRP-substrate was introduced to each well. The luminescence was read using a luminometer set with a gain of 150.
row,Substance,"binding to infliximab (phage ELISA, relative luminescence)"
1,"SEQ ID NO: 1: infliximab affinity peptide of FIG. 1, identified by pIX phage display (AGWTVAYVPPGPSYATS)",confirms the binding
2,"SEQ ID NO: 3: infliximab affinity peptide of FIG. 1; also chemically synthesized, biotinylated (AGTYCHPDQLRNLCPV; cysteine pairing not given here; also: biotinylated, position not given here)",confirms the binding
3,"SEQ ID NO: 4: infliximab affinity peptide of FIG. 1, identified by pIX phage display (AGVTCRMTEYGPMCPT)",confirms the binding
4,"SEQ ID NO: 5: infliximab affinity peptide of FIG. 1, identified by pIX phage display (AGNRCAYAAGTIQCFP)",confirms the binding
5,"SEQ ID NO: 6: infliximab affinity peptide of FIG. 1, identified by pIX phage display (AGEICYWHDTDWVCTE)",confirms the binding
6,"SEQ ID NO: 7: infliximab affinity peptide of FIG. 1, identified by pIX phage display (AGTHCSYVLGRIECLP)",confirms the binding
7,"SEQ ID NO: 8: infliximab affinity peptide of FIG. 1, identified by pIX phage display (AGNYCHPDQLSQFCAR)",confirms the binding
8,"SEQ ID NO: 9: infliximab affinity peptide of FIG. 1, identified by pIX phage display (AGVACHSTGTNIYTCTY)",confirms the binding
9,"SEQ ID NO: 11: infliximab affinity peptide of FIG. 1, identified by pIX phage display (AGSLCHTVGSGIYNCTK)",confirms the binding
10,"SEQ ID NO: 12: infliximab affinity peptide of FIG. 1, identified by pIX phage display (AGIQCHDVGAGVVTCTY)",confirms the binding
11,"SEQ ID NO: 13: infliximab affinity peptide of FIG. 1; also chemically synthesized, biotinylated (AGPPCIVTQLSDLSFCAP; cysteine pairing not given here; also: biotinylated, position not given here)",confirms the binding
12,"SEQ ID NO: 14: infliximab affinity peptide of FIG. 1, identified by pIX phage display (AGARCAPAFDANWLICSN)",confirms the binding
13,"SEQ ID NO: 15: infliximab affinity peptide of FIG. 1, identified by pIX phage display (AGPPCAAAMAQAQLACTH)",confirms the binding
14,"SEQ ID NO: 16: infliximab affinity peptide of FIG. 1, identified by pIX phage display (AGVVCATPEWTWDPACAT)",confirms the binding
15,"SEQ ID NO: 17: infliximab affinity peptide of FIG. 1, identified by pIX phage display (AGLLCAPSLDPDYILCDQ)",confirms the binding
16,SEQ ID NO: 18: infliximab affinity peptide of FIG. 1; wild type for site-directed mutagenesis (AG-XXXX-PWPPTAES-XXXX mutants) (AGLLCEPWPPTAESICRS),confirms the binding
17,"SEQ ID NO: 19: infliximab affinity peptide of FIG. 1, identified by pIX phage display (AGPPYTVFVHL)",confirms the binding
18,"SEQ ID NO: 20: infliximab affinity peptide of FIG. 1, identified by pIX phage display (AGYCISDYIDPCH)",confirms the binding
19,"SEQ ID NO: 21: infliximab affinity peptide of FIG. 1, identified by pIX phage display (AGPCISDYFDPCH)",confirms the binding
20,"SEQ ID NO: 22: infliximab affinity peptide of FIG. 1, identified by pIX phage display (AGLCPELPHC)",confirms the binding
21,"SEQ ID NO: 23: infliximab affinity peptide of FIG. 1, identified by pIX phage display (AGPCPELPHCTY)",confirms the binding

# Tested on: infliximab
# Assay: Infliximab affinity peptide ELISA, concentration dependent binding
# Conditions: biotinylated synthesized peptides, 0.0028-500 micromolar, FIG. 5
# Experimental: 96-well black ELISA plates were coated with goat anti-human Fc (Jackson Immunoresearch Laboratories, Inc., West Grove, Pa., cat. #109-006-098) at a concentration of 5 micrograms/mL in PBS. Plates were incubated overnight at 4° C. Plates were washed 3 times with TBST using a plate washer. […] To all other wells, 100 microliters of PBS was introduced. The plates were again washed 3 times with TBST using the plate washer. The wells were then blocked with 250 microliters of a 3% dehydrated milk suspension in TBST and allowed to sit at room temperature for a minimum of 1 hour. Biotinylated, chemically synthesized peptides having SEQ ID NO: 2, SEQ ID NO: 3, SEQ ID NO: 10, and SEQ ID NO: 13 were prepared using standard, automated Fluorenylmethyloxycarbonyl (Fmoc) solid phase peptide synthesis procedures. Each peptide solution for the assay was prepared from a 500 micromolar stock solution. The stock solution was serially diluted in assay buffer resulting in peptide concentrations of 500, 166.6, 55.5, 18.5, 6.2, 2.1, 0.69, 0.23, 0.076, 0.025, 0.0085 and 0.0028 micromolar.
# After blocking, the ELISA plate was washed 3 times with TBST and 100 microliters of the serially diluted peptides were added to the corresponding wells of the ELISA plate and allowed to sit at room temperature for a minimum of 1 hour. […] The luminescence was read using a luminometer set with a gain of 150.
row,Substance,rank according to concentration-dependent binding to infliximab
1,"SEQ ID NO: 3: infliximab affinity peptide of FIG. 1; also chemically synthesized, biotinylated (AGTYCHPDQLRNLCPV; cysteine pairing not given here; also: biotinylated, position not given here)",SEQ ID NO: 2>SEQ ID NO: 10>SEQ ID NO: 3>SEQ ID NO: 13
2,"SEQ ID NO: 13: infliximab affinity peptide of FIG. 1; also chemically synthesized, biotinylated (AGPPCIVTQLSDLSFCAP; cysteine pairing not given here; also: biotinylated, position not given here)",SEQ ID NO: 2>SEQ ID NO: 10>SEQ ID NO: 3>SEQ ID NO: 13

# Tested on: WEHI-13VAR mouse fibroblasts
# Assay: In vitro bioactivity of infliximab in the presence of affinity peptides, MTT cell viability with TNF-α
# Type: cell-based
# Conditions: peptide 66 nanomolar, infliximab 0-66 nanomolar, overnight, FIG. 7
# Experimental: In this experiment, we determined if the affinity peptides would interfere with the binding of tumor necrosis factor alpha (TNF-α) using WEHI-13VAR mouse fibroblasts.
# WEHI-13VAR cells (mouse fibroblast cell line) were plated out in wells of a 96 well plate two hours prior to running the experiment at 50000 cells per well. […] After overnight incubation, cell viability was assessed using an MTT cell viability assay (R&D Systems, Inc., Minneapolis, Minn., cat #4890-050-K) following the product insert.
row,Substance,effect on the viability of WEHI-13VAR mouse fibroblasts in the presence of infliximab
1,"SEQ ID NO: 13: infliximab affinity peptide of FIG. 1; also chemically synthesized, biotinylated (AGPPCIVTQLSDLSFCAP; cysteine pairing not given here; also: biotinylated, position not given here)",minimal effect

# Tested on: not given
# Assay: not given
# Conditions: given by IV infusion; cited from earlier work
row,Substance,half-life
1,infliximab: chimeric IgG1κ monoclonal antibody that blocks the action of TNF-alpha,approximately eight

# — patent US8822423B2 (Janssen Biotech, Inc., priority 2012, dated 2014)
